This is an account of results in PubChem BioAssay AID248 (DTP/NCI, 2004).

For this test, the system named is L1210 leukemia ip in BDF1 mice, survival T/C. Nature of the test: NCI In Vivo Anticancer Drug Screen. Data for tumor model L1210 Leukemia (intraperitoneal) in B6D2F1 (BDF1) mice. The settings on record: endpoint: mean survival time, higher = longer survival. The method in brief:
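Survival endpoint. Drug-treated group vs vehicle group, expressed as T divided by C. Tumor passaged by transplantation.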

Where [1] appears, read: dose: 100.0 mg/kg/injection, schedule: Q01DX001 (ip), vehicle: saline.
Setting [2] is: dose: 200.0 mg/kg/injection, schedule: Q01DX001 (ip), vehicle: saline.
The mark [3] stands for this setting: dose: 400.0 mg/kg/injection, schedule: Q01DX001 (ip), vehicle: saline.

SMILES strings stand for the structures. Several values for one entry are separate records, joined by “and”; a condition that tells them apart may be missing. Identical values can stand only once. Inconclusive results and toxic doses are left out.

`O=C(NP(=O)(N1CC1)N1CC1)c1cc(I)ccc1I`: the T/C was 99 % of control (dose: 1.0 mg/kg/injection, schedule: Q01DX001 (ip), vehicle: saline with Tween-80); 95 % of control and 98 % of control (dose: 1.0 mg/kg/injection, schedule: Q01DX001 (ip), vehicle: saline); 106 % of control (dose: 1.0 mg/kg/injection, schedule: Q01DX001 (oral), vehicle: saline with Tween-80); 97 % of control (dose: 1.0 mg/kg/injection, schedule: Q01DX001 (oral), vehicle: saline); 103 % of control (dose: 1.0 mg/kg/injection, schedule: Q01DX009 (ip), vehicle: saline with Tween-80); 97 % of control (dose: 1.0 mg/kg/injection, schedule: Q01DX009 (ip), vehicle: saline). In addition, the T/C (dose: 1.0 mg/kg/injection, schedule: Q04DX003 (ip), vehicle: saline with Tween-80) was 107 % of control; the T/C (dose: 1.0 mg/kg/injection, schedule: Q04DX003 (ip), vehicle: saline) was 104 % of control and 111 % of control; the T/C (dose: 2.0 mg/kg/injection, schedule: Q01DX001 (ip), vehicle: saline with Tween-80) is 93 % of control; the T/C (dose: 2.0 mg/kg/injection, schedule: Q01DX001 (ip), vehicle: saline) was 100 % of control and 110 % of control; the T/C (dose: 2.0 mg/kg/injection, schedule: Q01DX001 (oral), vehicle: saline with Tween-80) is 100 % of control; the T/C (dose: 2.0 mg/kg/injection, schedule: Q01DX001 (oral), vehicle: saline) is 94 % of control. Besides, the T/C was 105 % of control (dose: 2.0 mg/kg/injection, schedule: Q01DX009 (ip), vehicle: saline with Tween-80); 97 % of control and 111 % of control (dose: 2.0 mg/kg/injection, schedule: Q04DX003 (ip), vehicle: saline); 97 % of control (dose: 4.0 mg/kg/injection, schedule: Q01DX001 (ip), vehicle: saline with Tween-80); 100 % of control and 108 % of control (dose: 4.0 mg/kg/injection, schedule: Q01DX001 (ip), vehicle: saline); 107 % of control (dose: 4.0 mg/kg/injection, schedule: Q01DX001 (oral), vehicle: saline with Tween-80); 92 % of control (dose: 4.0 mg/kg/injection, schedule: Q01DX001 (oral), vehicle: saline). Besides, the T/C was 101 % of control (dose: 4.0 mg/kg/injection, schedule: Q01DX009 (ip), vehicle: saline with Tween-80); 101 % of control (dose: 4.0 mg/kg/injection, schedule: Q04DX003 (ip), vehicle: saline with Tween-80); 97 % of control (dose: 4.0 mg/kg/injection, schedule: Q04DX003 (ip), vehicle: saline); 101 % of control (dose: 8.0 mg/kg/injection, schedule: Q01DX001 (ip), vehicle: saline with Tween-80); 99 % of control and 118 % of control (dose: 8.0 mg/kg/injection, schedule: Q01DX001 (ip), vehicle: saline); 101 % of control (dose: 8.0 mg/kg/injection, schedule: Q01DX001 (oral), vehicle: saline with Tween-80). The T/C reads like this: (dose: 8.0 mg/kg/injection, schedule: Q01DX001 (oral), vehicle: saline) 90 % of control; (dose: 8.0 mg/kg/injection, schedule: Q01DX009 (ip), vehicle: saline with Tween-80) 121 % of control; (dose: 8.0 mg/kg/injection, schedule: Q04DX003 (ip), vehicle: saline with Tween-80) 115 % of control; (dose: 8.0 mg/kg/injection, schedule: Q04DX003 (ip), vehicle: saline) 102 % of control; (dose: 16.0 mg/kg/injection, schedule: Q01DX001 (ip), vehicle: saline with Tween-80) 109 % of control; (dose: 16.0 mg/kg/injection, schedule: Q01DX001 (ip), vehicle: saline) 100 % of control and 121 % of control. Besides, the T/C by setting is: (dose: 16.0 mg/kg/injection, schedule: Q01DX001 (oral), vehicle: saline with Tween-80) 102 % of control; (dose: 16.0 mg/kg/injection, schedule: Q01DX001 (oral), vehicle: saline) 97 % of control; (dose: 16.0 mg/kg/injection, schedule: Q04DX003 (ip), vehicle: saline) 104 % of control; (dose: 32.0 mg/kg/injection, schedule: Q01DX001 (ip), vehicle: saline with Tween-80) 112 % of control; (dose: 32.0 mg/kg/injection, schedule: Q01DX001 (ip), vehicle: saline) 99 % of control and 110 % of control; (dose: 32.0 mg/kg/injection, schedule: Q01DX001 (oral), vehicle: saline with Tween-80) 101 % of control. Also, the T/C is, setting by setting: (dose: 32.0 mg/kg/injection, schedule: Q01DX001 (oral), vehicle: saline) 96 % of control; (dose: 32.0 mg/kg/injection, schedule: Q01DX009 (ip), vehicle: saline with Tween-80) 155 % of control; (dose: 32.0 mg/kg/injection, schedule: Q01DX009 (ip), vehicle: saline) 162 % of control; (dose: 64.0 mg/kg/injection, schedule: Q01DX001 (ip), vehicle: saline with Tween-80) 111 % of control; (dose: 64.0 mg/kg/injection, schedule: Q01DX001 (ip), vehicle: saline) 105 % of control and 116 % of control; (dose: 64.0 mg/kg/injection, schedule: Q01DX001 (oral), vehicle: saline with Tween-80) 98 % of control. Further, the T/C is 100 % of control (dose: 64.0 mg/kg/injection, schedule: Q01DX001 (oral), vehicle: saline); 112 % of control (dose: 64.0 mg/kg/injection, schedule: Q01DX009 (ip), vehicle: saline with Tween-80); 183 % of control (dose: 64.0 mg/kg/injection, schedule: Q01DX009 (ip), vehicle: saline); 123 % of control (dose: 128.0 mg/kg/injection, schedule: Q01DX001 (ip), vehicle: saline with Tween-80); 114 % of control (dose: 128.0 mg/kg/injection, schedule: Q01DX001 (ip), vehicle: saline); 109 % of control (dose: 128.0 mg/kg/injection, schedule: Q01DX001 (oral), vehicle: saline with Tween-80). The T/C runs as follows: (dose: 128.0 mg/kg/injection, schedule: Q01DX001 (oral), vehicle: saline) 93 % of control; (dose: 128.0 mg/kg/injection, schedule: Q01DX009 (ip), vehicle: saline) 95 % of control; (dose: 128.0 mg/kg/injection, schedule: Q04DX003 (ip), vehicle: saline with Tween-80) 176 % of control; (dose: 128.0 mg/kg/injection, schedule: Q04DX003 (ip), vehicle: saline) 151 % of control and 159 % of control; (dose: 256.0 mg/kg/injection, schedule: Q01DX001 (ip), vehicle: saline) 124 % of control; (dose: 256.0 mg/kg/injection, schedule: Q01DX001 (oral), vehicle: saline) 120 % of control. The T/C reads like this: (dose: 256.0 mg/kg/injection, schedule: Q04DX003 (ip), vehicle: saline with Tween-80) 105 % of control; (dose: 256.0 mg/kg/injection, schedule: Q04DX003 (ip), vehicle: saline) 164 % of control; (dose: 512.0 mg/kg/injection, schedule: Q01DX001 (ip), vehicle: saline with Tween-80) 99 % of control; (dose: 512.0 mg/kg/injection, schedule: Q01DX001 (oral), vehicle: saline) 122 % of control; (dose: 512.0 mg/kg/injection, schedule: Q04DX003 (ip), vehicle: saline) 100 % of control.

`CCN(CC)CC(O)c1ccnc2c([N+](=O)[O-])cc(OC)cc12` (stereo not given): the T/C (dose: 75.0 mg/kg/injection, schedule: Q01DX001 (ip), vehicle: acetone) is 106 % of control; the T/C (dose: 150.0 mg/kg/injection, schedule: Q01DX001 (ip), vehicle: acetone) is 102 % of control; the T/C (dose: 300.0 mg/kg/injection, schedule: Q01DX001 (ip), vehicle: acetone) is 91 % of control.

Regarding `S=P(c1ccccc1)(c1cccc2ccccc12)c1cccc2ccccc12`, the T/C is 93 % of control under setting [1], 96 % of control under setting [2] and 93 % of control under setting [3].

`OCCCN=Cc1ccccc1O.OCCCN=Cc1ccccc1O.[Cu]`: the T/C was 92 % of control (dose: 9.5 mg/kg/injection, schedule: Q01DX001 (ip), vehicle: other); 97 % of control (dose: 19.0 mg/kg/injection, schedule: Q01DX001 (ip), vehicle: other); 100 % of control (dose: 38.0 mg/kg/injection, schedule: Q01DX001 (ip), vehicle: other); 114 % of control (dose: 75.0 mg/kg/injection, schedule: Q01DX001 (ip), vehicle: other).

As for `O=S(=O)(CS(=O)(=O)Nc1ccccc1)Nc1ccccc1`, the T/C is, setting by setting: (dose: 25.0 mg/kg/injection, schedule: Q04DX003 (ip), vehicle: saline with Tween-80) 113 % of control; (dose: 50.0 mg/kg/injection, schedule: Q04DX003 (ip), vehicle: saline with Tween-80) 116 % of control; under setting [1], 94 % of control; (dose: 100.0 mg/kg/injection, schedule: Q04DX003 (ip), vehicle: saline with Tween-80) 111 % of control; under setting [2], 94 % of control; under setting [3], 94 % of control.
